Data taken from patent US9486536B2 (Immunomedics, Inc., priority 2013, dated 2016).

Assays:
[1] = tolerability / toxicity of hRS7-P2PDox in mice
Protocol: (§1) Tumor size was determined by caliper measurements of length (L) and width (W) with tumor volume calculated as (L×W^2)/2. Tumors were measured and mice weighed twice a week. Mice were euthanized if their tumors reached >1 cm^3 in size, lost greater than 15% of their starting body weight, or otherwise became moribund. Statistical analysis for the tumor growth data was based on area under the curve (AUC) and survival time. Profiles of individual tumor growth were obtained through linear curve modeling. An f-test was employed to determine equality of variance between groups prior to statistical analysis of growth curves. A two-tailed t-test was used to assess statistical significance between all the various treatment groups and non-specific controls. For the saline control analysis a one-tailed t-test was used to assess significance. Survival studies were analyzed using Kaplan-Meier plots (log-rank analysis), using the Prism GraphPad Software (v4.03) software package (Advanced Graphics Software, Inc.; Encinitas, Calif.). All doses in preclinical experiments are expressed in antibody amounts. In terms of drug, 100 μg of antibody (5 mg/kg) in a 20-g mouse, for example, carries 1.4 μg-2.8 μg ([…]) of P2PDox equivalent dose when using an ADC with 3-6 drugs/IgG.
(§2) Using this dosing regimen, we examined the therapeutic effect of hRS7-P2PDox in 2 human tumor xenograft models, Capan-1 (pancreatic cancer) and NCI-N87 (gastric cancer). Therapy began 7 days after tumor transplantation in nude mice.
Conjugates were prepared and evaluated with mean drug/MAb substitution ratios (MSRs) of ˜6:1 and ˜3:1. Groups of normal mice (n=5) were administered, i.v., single doses of unmodified hRS7 or hRS7-P2PDox with drug substitution of 6.8 or 3.7 (same protein dose), and serum samples were collected at 30 min, 4 h, 24 h, 72 h, and 168 h post-injection. These were analyzed by ELISA for antibody concentration.
(§3) Anti-TROP-2 antibody conjugate, hRS7-P2PDox, was evaluated in nude mice bearing NCI-N87 human gastric cancer xenografts by administering a single bolus protein dose of 9 mg/kg, 6.75 mg/kg, 4.5 mg/kg, 2.25 mg/kg, or 1 mg/kg. The therapy was started when the mean tumor volume (mTV) was 0.256 cm^3.

[2] = PK in normal mice, serum antibody by ELISA; assay type: in vivo; conditions: drug substitution 6.8 or 3.7 vs unmodified hRS7
Protocol: These were analyzed by ELISA for antibody concentration. […] The PK parameters (Cmax, AUC, etc.) were similar.

[3] = test system: BxPC3 human pancreatic carcinoma xenografts; test: therapy of BxPC3 xenografts in nude mice; assay type: in vivo
[4] = test system: triple-negative breast cancer; test: treatment of triple-negative breast cancer patients; assay type: in vivo, human
Protocol: P2PDox-hRS7 ADC is prepared as described in Examples 1 and 3 above. Patients with triple-negative breast cancer who had failed at least two standard therapies receive 3 cycles of 70 mg P2PDox-hRS7 injected i.v. every 3 weeks. Objective responses are observed at this dose level of P2PDox-hRS7, with an average decrease in tumor volume of 35%, after two cycles of therapy. All serum samples evaluated for human anti-hRS7 antibody (HAHA) are negative.

[5] = serum stability, HIC HPLC; assay type: in vitro ADME; conditions: human serum, 0.2 mg/mL, 37° C.
Protocol: Serum stability of prototypical P2PDox conjugate, hRS7-P2PDox, was determined by incubating in human serum at a concentration of 0.2 mg/mL at 37° C.

[6] = test system: NCI-N87 gastric carcinoma cells; test: cell binding, conjugate vs unconjugated antibody; set-up: species or system human; conditions: 6 molecules of P2PDox per antibody (not shown)
[7] = test system: Capan-1 human pancreatic adenocarcinoma xenografts; test: therapy of Capan-1 xenografts in nude mice; assay type: in vivo
Protocol: FIG. 2. Therapy in nude mice bearing s.c. human tumor xenografts using 2.25 mg/kg protein dose (0.064 mg/kg of drug dose) of MAb-P2PDox conjugates twice weekly×2 weeks in nude mice with Capan-1 human pancreatic adenocarcinoma xenografts (n=5).
Tumors were measured and mice weighed twice a week.
At 63 days after Capan-1 tumor injection (with therapy starting at 1 days post-innoculation), 0 of 10 mice were alive in the saline control, 10 of 10 mice were alive in mice treated twice weekly×2 weeks with 45 μg of hPAM4-P2PDox, 2 of 10 mice were alive in mice treated twice weekly×2 weeks with 45 μg of hA20-P2PDox, 0 of 10 mice were alive in mice treated twice weekly×4 weeks with 250 μg of hPAM4-SN-38, and 0 of 10 mice were alive in mice treated twice weekly×4 weeks with 250 μg of h20-SN-38.

[8] = test system: MDA-MB-468 human breast carcinoma xenografts; test: therapy of MDA-MB-468 xenografts in nude mice; assay type: in vivo
[9] = test system: gastric (NCI-N87), pancreatic (Capan-1), and breast (MDA-MB-468) human cancer cell lines; test: 4-day MTS assay, potency of the conjugate; assay type: cell-based; conditions: range over NCI-N87, Capan-1 and MDA-MB-468
Protocol: Retention of antibody binding was confirmed by cell binding assays comparing binding of the conjugate to unconjugated antibody (Chari, 2008, Acc Chem Res 41:98-107). The potency of the conjugate was tested in a 4-day MTS assay using appropriate target cells.

[10] = test system: NCI-N87 human gastric carcinoma xenografts; test: therapy of NCI-N87 xenografts in nude mice; assay type: in vivo; conditions: for mean tumor volume (mTV) on day 21: starting mTV 0.256 cm^3
Protocol: FIG. 3A. Therapy in nude mice bearing s.c. human tumor xenografts using 2.25 mg/kg protein dose (0.064 mg/kg of drug dose) of MAb-P2PDox conjugates twice weekly×2 weeks in nude mice (n=7) with NCI-N87 human gastric carcinoma xenografts.
as §1, §2, §3
Further in vivo efficacy studies were performed in nude mice implanted with NCI-N87 human gastric cancer xenografts (FIG. 13A-F).
The effect of varying dosage schedule on anti-tumor efficacy was examined (FIG. 14, FIG. 19A-G). The experiment began 9 days after tumor implantation when mean tumor volume for all groups was 0.383 cm^3, and ended on day 93 (84 days after initiation of therapy).

hRS7-P2PDox
toxicity of the three dosage schedules ([1]; 45 μg q4dx4, 90 μg weekly×2, single 180 μg (not shown)): similarly low levels of toxicity
tolerability of 4 doses of 45 μg given in 2 weeks ([1]; 4 doses of 45 μg in 2 weeks): tolerated by all animals
MTD ([1]; single bolus protein dose, nude mice bearing NCI-N87): 9 mg/kg
lethal single i.v. dose ([1]; single i.v. dose, antibody amount [~10 μg of P2PDox]): ≥ 300 µg
PK parameters (Cmax, AUC, etc.) [2]: similar
serum concentrations at various times ([2]; single i.v. dose, 30 min to 168 h): no significant differences in serum concentrations
inhibition of growth compared with hRS7-SN-38 ([3]; PxPC-3 pancreatic cancer (not shown)): substantially more effective
antitumor effects ([3]; second pancreatic cancer xenograft, 2.25 mg/kg protein dose twice weekly×2 weeks): specific and significant antitumor effects
average decrease in tumor volume ([4]; 70 mg i.v. every 3 weeks, after two cycles of therapy): 35%
human anti-hRS7 antibody (HAHA) in serum samples ([4]; human, in vivo): negative
release of free drug from the conjugate [5]: no release of free drug
binding of the antibody moiety vs unconjugated hRS7 [6]: No significant difference in binding
established tumors regressed ([7]; 4 doses of 45 μg in 2 weeks, therapy began 7 days after transplantation, no re-growth): 100%
inhibition of tumor growth compared with the SN-38 conjugate of the same antibody ([7]; not shown): more effective at inhibiting tumor growth
antitumor effects ([8]; 2.25 mg/kg protein dose twice weekly×2 weeks): specific and significant antitumor effects
inhibition of growth compared with hRS7-SN-38 ([8]; not shown): slightly more effective
IC50 [9]: 0.35 to 1.09 nM
mice alive at day 94 ([10]; 45 μg q4dx4): 8 of 9
mice alive at day 94 ([10]; 90 μg weekly×2): 9 of 9
effect of 2nd course of therapy ([10]; 2nd course administered after day 70): safely tolerated and led to further regressions of residual tumor
effect on tumors, one treatment cycle ([10]; 4×45 μg): rapidly regressed all tumors
effect of second treatment cycle ([10]; second cycle about 2 months after the end of the first cycle): complete regression of all but one
minimum effective dose ([10]; single bolus protein dose): 2.25 mg/kg
mean tumor volume (mTV) on day 21 ([10]; single bolus protein dose 2.25 mg/kg): 0.567±0.179 cm^3
mean tumor volume (mTV) on day 21 ([10]; single bolus protein dose 4.5 mg/kg): 0.264±0.087 cm^3
mean tumor volume (mTV) on day 21 ([10]; single bolus protein dose 9 mg/kg): 0.211±0.042 cm^3
minimum single dose for significant survival benefit compared to saline control ([10]; single dose): 45 µg
single dose giving maximum effect on tumor growth ([10]; single dose): ≥ 90 µg
mice alive at day 94 ([10]; single dose of 180 μg): 78 of 9
